Where a chain is given by its changes, count along the chain named. Values after ≈ are worked out from the molar mass of the structure shown. “Also recorded” adds a separate entry of the source.
Columns and labels:
[1] = molecular target: T1, PP5 (Rattus norvegicus, UniProt P53042); experiment: pNPP phosphatase assay with rat PP5; assay type: biochemical, R. norvegicus; conditions: for fold activation: PP5 (R. norvegicus), compound at 100 μM
T1 construct: His tag (inferred from pET28 vector and HisTrap purification); made in house; host or cells: E. coli BL21-CodonPlus (DE3)-RIL
T1 sequence (P53042 1-499): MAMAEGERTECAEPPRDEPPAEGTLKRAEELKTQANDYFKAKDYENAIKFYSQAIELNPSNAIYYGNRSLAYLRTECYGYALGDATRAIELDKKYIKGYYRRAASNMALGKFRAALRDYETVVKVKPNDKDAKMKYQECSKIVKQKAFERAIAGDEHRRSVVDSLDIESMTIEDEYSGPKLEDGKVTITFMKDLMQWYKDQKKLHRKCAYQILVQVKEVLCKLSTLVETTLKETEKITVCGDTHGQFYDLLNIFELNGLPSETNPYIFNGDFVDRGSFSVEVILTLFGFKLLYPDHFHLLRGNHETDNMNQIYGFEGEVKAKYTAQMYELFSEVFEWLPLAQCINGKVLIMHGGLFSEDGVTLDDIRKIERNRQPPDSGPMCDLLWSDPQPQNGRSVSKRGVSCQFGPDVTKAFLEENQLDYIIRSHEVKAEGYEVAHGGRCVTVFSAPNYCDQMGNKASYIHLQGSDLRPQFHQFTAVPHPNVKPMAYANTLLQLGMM
Method: (§1) Phosphatase assays for characterization of PP5 and PPH-5 properties were performed in 40 mM HEPES/KOH, 20 mM KCl, 5 mM MnCl2, 1 mM DTT, pH 7.5 and 60 mM pNPP at 20°C if not indicated otherwise. Phosphatase concentrations ranged from 50 to 500 nM in the assay. If indicated, the CeHsp90/DAF-21 peptide AEEDASRMEEVD was supplemented in the assay at a concentration of 60 μM. […] These concentrations were 70 μM for P5SA-1, 140 μM for P5SA-2, 50 μM for P5SA-3, 100 μM for P5SA-4 and 45 μM for P5SA-5.

[2] = physchem; assay type: physicochemical; conditions: 20 °C, pH 7.5, aqueous buffer
Method: as §1

[3] = molecular target: T2, PP5 428–430/455–457 (Rattus norvegicus, UniProt P53042, E428A/K430A/M455A/N457A/V429A); experiment: pNPP phosphatase assay with PP5 428–430/455–457 mutant; assay type: biochemical; conditions: compound at 100 μM
T2 construct: made in house; host or cells: E. coli BL21-CodonPlus (DE3)-RIL
T2 sequence (P53042 1-499 E428A/V429A/K430A/M455A/N457A): T1 sequence (P53042 1-499) with E428A, V429A, K430A, M455A, N457A
Method: (§2) Cloning and purification of PPH-5 (protein phosphatase homologue), CeHsp90/DAF-21 (abnormal DAuer formation), YFP-CeHsp90/DAF-21, BAG-1 (Bcl-2 associated athanogene-1), DNJ-13 (DNJ-13 homologue) and CeHsc70 (C. elegans heat shock cognate 70) were performed as described before. The human phosphatases PP1, PP2A and PP2B/PP3 were purified as described. The expression clones of rat PP5, PP5-ΔN165 (166–499) and PP5-ΔC8 (1–491) were generated by PCR and insertion of the DNA into the pET28 vector. Expression clones of PP5 428–430, which contains A^428-A^429-A^430 instead of E^428-V^429-K^430 and PP5 […], which contains A^428-A^429-A^430 instead of E^428-V^429-K^430 and A^455-G^456-A^457 instead of M^455-G^456-N^457, were also generated by PCR using primer sequences containing the modified codons. PCR-products were inserted into the pET28b expression plasmid (Merck) and verified by DNA sequencing (GATC Biotech). Proteins were expressed in BL21-CodonPlus (DE3)-RIL bacteria (Stratagene). Bacterial cultures were grown to a D600 of 0.8 and induced with 1 mM IPTG. Cells were disrupted using a cell disruption machine (IUL Instruments) and the lysate was loaded on to a HisTrap FF column (GE Healthcare). […] Protein purity was assessed by SDS/PAGE and the molecular mass was determined on an UltraFlex III MALDI-TOF/TOF mass spectrometer (Bruker). […]

[4] = molecular target: T3, PP5 428–430 (Rattus norvegicus, UniProt P53042, E428A/K430A/V429A); experiment: pNPP phosphatase assay with PP5 428–430 mutant; assay type: biochemical; conditions: compound at 100 μM
T3 construct: made in house; host or cells: E. coli BL21-CodonPlus (DE3)-RIL
T3 sequence (P53042 1-499 E428A/V429A/K430A): T1 sequence (P53042 1-499) with E428A, V429A, K430A
Method: as §2

SMILES	fold activation [1]	solubility [2] [µM]	stimulation of PP5 428–430/455–457 [3]	stimulation of PP5 428–430 (single-loop mutant) [4]	stimulation of full-length rat PP5 at lower concentration ([1]; compound at 10 μM)
COc1ccc(-c2nc(Cc3ccc(Cl)cc3)no2)cc1OC [P5SA-2]	3.9	140 (≈ 46.3 µg/mL)	could not observe any stimulation	no activation could be achieved	
CNC(=O)c1c(NC(=O)COCC(=O)Nc2sc3c(c2C(=O)NC)CCC3)sc2c1CCC2 [P5SA-5]	8.6	45 (≈ 22.1 µg/mL)	could not detect stimulation; also recorded: did not stimulate the catalytic activity	did not stimulate the catalytic activity	effect at the lower concentration was detectable
